# Measured values from PMC8998746, “Effect of Clinically Used Microtubule Targeting Drugs on Viral Infection and Transport Function” (International Journal of Molecular Sciences, 2022).
# Where two headings read alike, the source gives them in different places.
# Key:
# [1] = tested on: VSV-G-luc (vesicular stomatitis virus); assay type: cell-based
# ASFV BPP30GFP = assay type: cell-based, African swine fever virus
# Huh-7 Lunet C3 cells [2] = settings: human, 24 h
# Vero E6 cells [3] = settings: African green monkey, 24 h
# Vero cells [4] = settings: African green monkey, 24 h
# [5] = tested on: KBP (kinesin) movement along MTs in AHRTG cells; experiment: In cell motility assay with kinesin binding peptide probe (KBP); assay type: cell-based, human; settings: for KBP mean displacement, decrease / KBP mean velocity, decrease / KBP mean movement / proportion of transported particles (TM/CM), reduction: AHRTG cells, NOC 2.5 µM, PTX 10 µM; for KBP mean displacement, decrease / KBP mean velocity, decrease: vs control; for KBP mean movement / proportion of transported particles (TM/CM), reduction: vs untreated
# Vero cells [6] = experiment: Cell viability, CellTiter 96 assay, Vero; settings: 24 h treatment
# Vero E6 cells [7] = experiment: Cell viability, CellTiter 96 assay, Vero E6; settings: Vero E6, 24 h treatment
# Huh-7 Lunet C3 cells [8] = experiment: Cell viability, CellTiter 96 assay, Huh-7 Lunet C3; settings: Huh-7 Lunet C3, 24 h treatment, over 80% cell viability
# [9] = tested on: DBP (dynein) movement along MTs in AHRTG cells; experiment: In cell motility assay with dynein binding peptide probe (DBP); assay type: cell-based, human; settings: for DBP mean displacement, decrease / DBP mean velocity, decrease / DBP mean movement / proportion of transported particles (TM/CM), reduction: NOC 2.5 µM, PTX 10 µM; for DBP mean displacement, decrease / DBP mean velocity, decrease: vs control; for DBP mean movement / proportion of transported particles (TM/CM), reduction: vs untreated
# [10] = tested on: SARS-CoV-2 strain NL/2020; experiment: microbe, parasite or virus in culture; assay type: cell-based; settings: Severe acute respiratory syndrome coronavirus 2; A549-ACE2 cells, 1 h pretreatment, 48 h, optimal dose (PPT 100 nM); read-out: inhibition of SARS-CoV-2 infection
# VACV vtag2GFP = assay type: cell-based, vaccinia virus
SMILES,highest non-toxic concentration (Huh-7 Lunet C3 cells [2]) [nM],highest non-toxic concentration (Vero E6 cells [3]) [nM],highest non-toxic concentration (Vero cells [4]) [nM],highest non-toxic concentration (Vero cells [6]) [nM],highest non-toxic concentration (Vero E6 cells [7]) [nM],highest non-toxic concentration (Huh-7 Lunet C3 cells [8]) [nM],also measured
"CC[C@]1(O)C[C@@H]2CN(CCc3c([nH]c4ccccc34)[C@@](C(=O)OC)(c3cc4c(cc3OC)N(C)[C@H]3[C@@](O)(C(=O)OC)[C@H](OC(C)=O)[C@]5(CC)C=CCN6CC[C@]43[C@@H]65)C2)C1 [VBL, vinblastine]",0.05,5,25,–,–,–,decrease of VSV infection [1]: 90%; inhibition of ASFV early infection (BPP30GFP) (ASFV BPP30GFP): up to 50%
"COc1cc2cc(c1Cl)N(C)C(=O)C[C@H](OC(=O)[C@H](C)N(C)C(C)=O)[C@]1(C)O[C@H]1[C@H](C)[C@@H]1C[C@@](O)(NC(=O)O1)[C@H](OC)/C=C/C=C(\C)C2 [MAYT, maytansine]",–,–,–,25,25,0.1,decrease of VSV infection [1]: 40%; effect on KBP movement (TM/CM ratio) [5]: significant reduction of the TM/CM ratio
"CC[C@]1(O)C[C@H]2CN(CCc3c([nH]c4ccccc34)[C@@](C(=O)OC)(c3cc4c(cc3OC)N(C=O)[C@H]3[C@@](O)(C(=O)OC)[C@H](OC(C)=O)[C@]5(CC)C=CCN6CC[C@]43[C@@H]65)C2)C1 [VCR, vincristine]",5,1,1,–,–,–,–
"CC(=O)O[C@@]12CO[C@@H]1C[C@H](O)[C@@]1(C)C(=O)[C@H](O)C3=C(C)[C@@H](OC(=O)[C@H](O)[C@@H](NC(=O)OC(C)(C)C)c4ccccc4)C[C@@](O)([C@@H](OC(=O)c4ccccc4)[C@H]21)C3(C)C [DTX, docetaxel]",–,–,–,10,10,0.03,–
"COc1ccc2c(c1OC)C(=O)O[C@@H]2[C@H]1c2c(cc3c(c2OC)OCO3)CCN1C [NOS, noscapine]",100,100,100,–,–,–,effect on KBP movement (TM/CM ratio) [5]: no effect on KBP movement
"CCCSc1ccc2nc(NC(=O)OC)[nH]c2c1 [ABZ, albendazole]",–,–,–,25,25,1,effect on KBP movement (TM/CM ratio) [5]: very low effect on motion; effect on KBP particle displacement [5]: no significant modification; effect on KBP particle velocity [5]: no significant modification
"CC[C@]1(O)C[C@@H]2CN(CCc3c([nH]c4ccccc34)[C@@](C(=O)OC)(c3cc4c(cc3OC)N(C)[C@H]3[C@@](O)(C(N)=O)[C@H](O)[C@]5(CC)C=CCN6CC[C@]43[C@@H]65)C2)C1 [VDS, vindesine]",0.02,100,100,–,–,–,decrease of VSV infection [1]: 80%; inhibition of ASFV early infection (BPP30GFP) (ASFV BPP30GFP): up to 50%
"CC(=O)O[C@H]1C(=O)[C@@]2(C)[C@H]([C@H](OC(=O)c3ccccc3)[C@]3(O)C[C@H](OC(=O)[C@H](O)[C@@H](NC(=O)c4ccccc4)c4ccccc4)C(C)=C1C3(C)C)[C@]1(OC(C)=O)CO[C@@H]1C[C@@H]2O [PTX, paclitaxel]",5,25,25,–,–,–,"effect on KBP particle displacement [5]: significantly decreased the displacement of particles; KBP mean displacement, decrease [5]: 16%; KBP mean velocity, decrease [5]: no meaningful changes; KBP mean movement / proportion of transported particles (TM/CM), reduction [5]: 17%; DBP mean displacement, decrease [9]: no alterations; DBP mean velocity, decrease [9]: no alterations; DBP mean movement / proportion of transported particles (TM/CM), reduction [9]: 27%"
"COc1cc([C@@H]2c3cc4c(cc3[C@H](O)[C@H]3COC(=O)[C@H]23)OCO4)cc(OC)c1OC [PPT, podophylotoxin]",–,–,–,50,50,0.2,inhibition at 0.1 µM [10]: 60%
"CC(C)(C)c1[nH]cnc1/C=c1\[nH]c(=O)/c(=C/c2ccccc2)[nH]c1=O [PLIN, plinabulin]",–,–,–,25,25,0.5,reduction of VACV (vtag2GFP) viral infection (VACV vtag2GFP): 50%; inhibition of ASFV early infection (BPP30GFP) (ASFV BPP30GFP): 30%
"COC(=O)Nc1nc2ccc(C(=O)c3cccs3)cc2[nH]1 [NOC, nocodazole]",–,–,–,–,–,–,"KBP mean displacement, decrease [5]: 54%; KBP mean velocity, decrease [5]: 36%; KBP mean movement / proportion of transported particles (TM/CM), reduction [5]: 68%; DBP mean displacement, decrease [9]: 44%; DBP mean velocity, decrease [9]: 30%; DBP mean movement / proportion of transported particles (TM/CM), reduction [9]: 60%"
"C/C(=C\c1csc(C)n1)[C@@H]1C[C@@H]2O[C@]2(C)CCC[C@H](C)[C@H](O)[C@@H](C)C(=O)C(C)(C)[C@@H](O)CC(=O)N1 [EPO, ixabepilone]",0.05,25,25,–,–,–,–
"COC(=O)Nc1nc2ccc(C(=O)c3ccccc3)cc2[nH]1 [MBZ, mebendazole]",5,10,10,–,–,–,concentration at which the DBP TM/CM ratio was affected ([9]; dose-response 0.1-10 μM MBZ): > 2.5 µM
"C=C1C[C@@H]2CC[C@@]34C[C@H]5O[C@H]6[C@@H](O3)[C@H]3O[C@H](CC[C@@H]3O[C@H]6[C@H]5O4)CC(=O)C[C@@H]3[C@@H](OC)[C@@H](C[C@H](O)CN)O[C@H]3C[C@H]3O[C@@H](CC[C@@H]1O2)C[C@@H](C)C3=C [ERIB, eribulin]",0.01,10,100,–,–,–,inhibition of ASFV early infection (BPP30GFP) (ASFV BPP30GFP): up to 50%
"CO[C@H]1C(=O)[C@]2(C)[C@@H](OC)C[C@H]3OC[C@@]3(OC(C)=O)[C@H]2[C@H](OC(=O)c2ccccc2)[C@]2(O)C[C@H](OC(=O)[C@H](O)[C@@H](NC(=O)OC(C)(C)C)c3ccccc3)C(C)=C1C2(C)C [CTX, cabazitaxel]",–,–,–,10,25,0.01,effect on KBP movement (TM/CM ratio) [5]: affected particle motion
"COC(=O)Nc1nc2ccc(Sc3ccccc3)cc2[nH]1 [FBZ, febendazole]",1,50,75,–,–,–,reduction of VACV (vtag2GFP) viral infection (VACV vtag2GFP): 40%; inhibition of ASFV early infection (BPP30GFP) (ASFV BPP30GFP): 30%
"COc1cc2c(c(OC)c1OC)-c1ccc(OC)c(=O)cc1[C@@H](NC(C)=O)CC2 [COL, colchicine]",–,–,–,75,25,0.2,–
